PubChem BioAssay (NCI)
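Interpolation was linear, between the two tested concentrations surrounding the appropriate level; five concentrations were tested over 48 hours in 96-well plates. GI50 = concentration required for 50% inhibition of growth. Definition used: TGI = concentration required for complete inhibition of growth.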

Tests used:
Experiment in all cases: DTP human tumour cell line panel, 48 h
[1] = test system: 786-0 renal
[2] = test system: A498 renal
[3] = test system: A549 NSCLC
[4] = test system: ACHN renal
[5] = test system: BT-549 breast
[6] = test system: CAKI-1 renal
[7] = test system: CCRF-CEM leukemia
[8] = test system: COLO 205 colon
[9] = test system: DU-145 prostate
[10] = test system: EKVX NSCLC
[11] = test system: HCC-2998 colon
[12] = test system: HCT-116 colon
[13] = test system: HCT-15 colon
[14] = test system: HL-60(TB) leukemia
[15] = test system: HOP-62 NSCLC
[16] = test system: HOP-92 NSCLC
[17] = test system: HS 578T breast
[18] = test system: HT29 colon
[19] = test system: IGROV1 ovarian
[20] = test system: K-562 leukemia
[21] = test system: KM12 colon
[22] = test system: LOX IMVI melanoma
[23] = test system: M14 melanoma
[24] = test system: MALME-3M melanoma
[25] = test system: MCF7 breast
[26] = test system: MDA-MB-231 breast
[27] = test system: MDA-MB-435
[28] = test system: MOLT-4 leukemia
[29] = test system: NCI-H226 lung
[30] = test system: NCI-H23 lung
[31] = test system: NCI-H460 lung
[32] = test system: NCI-H522 lung
[33] = test system: NCI/ADR-RES ovarian
[34] = test system: OVCAR-3 ovarian
[35] = test system: OVCAR-4 ovarian
[36] = test system: OVCAR-5 ovarian
[37] = test system: OVCAR-8 ovarian
[38] = test system: PC-3 prostate
[39] = test system: RPMI-8226 leukemia
[40] = test system: RXF 393 renal
[41] = test system: SF-268 CNS
[42] = test system: SF-295 CNS
[43] = test system: SF-539 CNS
[44] = test system: SK-MEL-2 melanoma
[45] = test system: SK-MEL-28 melanoma
[46] = test system: SK-MEL-5 melanoma
[47] = test system: SK-OV-3 ovarian
[48] = test system: SN12C renal
[49] = test system: SNB-19 CNS
[50] = test system: SNB-75 CNS
[51] = test system: SW-620 colon
[52] = test system: T-47D breast
[53] = test system: TK-10 renal
[54] = test system: U251 CNS
[55] = test system: UACC-257 melanoma
[56] = test system: UACC-62 melanoma
[57] = test system: UO-31 renal

CC(C)[C@@]12C[C@@H](OC(=O)COC(=O)/C=C/c3ccccc3)[C@@](C)(O1)[C@@H]1CC[C@@H](C)[C@H]1[C@@H]2OC(=O)/C=C/c1ccccc1
GI50 [1]: > 27.1 µM
TGI [1]: > 100 µM
GI50 [2]: < 0.0441 µM
TGI [2]: 0.401 µM
GI50 [3]: > 100 µM
TGI [3]: > 100 µM
GI50 [4]: 0.0591 µM
TGI [4]: 0.443 µM
GI50 [5]: 0.508 µM
TGI [5]: > 100 µM
GI50 [6]: 0.0813 µM
GI50 [7]: > 100 µM
TGI [7]: > 100 µM
GI50 [8]: > 100 µM
TGI [8]: > 100 µM
GI50 [9]: > 100 µM
TGI [9]: > 100 µM
GI50 [10]: > 100 µM
TGI [10]: > 100 µM
GI50 [11]: > 100 µM
TGI [11]: > 100 µM
GI50 [12]: > 100 µM
TGI [12]: > 100 µM
GI50 [13]: > 100 µM
TGI [13]: > 100 µM
GI50 [14]: > 92.2 µM
TGI [14]: > 100 µM
GI50 [15]: > 100 µM
TGI [15]: > 100 µM
GI50 [16]: > 64.9 µM
TGI [16]: > 100 µM
GI50 [17]: 0.0187 µM
TGI [17]: 0.0774 µM
GI50 [18]: > 100 µM
TGI [18]: > 100 µM
GI50 [19]: > 100 µM
TGI [19]: > 100 µM
GI50 [20]: > 78.1 µM
TGI [20]: > 100 µM
GI50 [21]: > 100 µM
TGI [21]: > 100 µM
GI50 [22]: > 100 µM
TGI [22]: > 100 µM
GI50 [23]: > 100 µM
TGI [23]: > 100 µM
GI50 [24]: > 100 µM
TGI [24]: > 100 µM
GI50 [25]: > 100 µM
TGI [25]: > 100 µM
GI50 [26]: > 100 µM
TGI [26]: > 100 µM
GI50 [27]: > 100 µM
TGI [27]: > 100 µM
GI50 [28]: > 100 µM
TGI [28]: > 100 µM
GI50 [29]: > 100 µM
TGI [29]: > 100 µM
GI50 [30]: > 100 µM
TGI [30]: > 100 µM
GI50 [31]: > 100 µM
TGI [31]: > 100 µM
GI50 [32]: > 100 µM
TGI [32]: > 100 µM
GI50 [33]: 0.569 µM
TGI [33]: > 100 µM
GI50 [34]: > 100 µM
TGI [34]: > 100 µM
GI50 [35]: > 100 µM
TGI [35]: > 100 µM
GI50 [36]: > 100 µM
TGI [36]: > 100 µM
GI50 [37]: 0.173 µM
TGI [37]: > 100 µM
GI50 [38]: > 100 µM
TGI [38]: > 100 µM
GI50 [39]: > 89.4 µM
TGI [39]: > 100 µM
GI50 [40]: 0.618 µM
TGI [40]: > 100 µM
TGI [41]: > 100 µM
GI50 [42]: > 100 µM
TGI [42]: > 100 µM
GI50 [43]: > 100 µM
TGI [43]: > 100 µM
GI50 [44]: > 100 µM
TGI [44]: > 100 µM
GI50 [45]: > 100 µM
TGI [45]: > 100 µM
GI50 [46]: > 100 µM
TGI [46]: > 100 µM
GI50 [47]: > 100 µM
TGI [47]: > 100 µM
GI50 [48]: 1.42 µM
TGI [48]: > 100 µM
GI50 [49]: > 100 µM
TGI [49]: > 100 µM
GI50 [50]: > 100 µM
TGI [50]: > 100 µM
GI50 [51]: > 100 µM
TGI [51]: > 100 µM
GI50 [52]: > 100 µM
TGI [52]: > 100 µM
GI50 [53]: > 100 µM
TGI [53]: > 100 µM
GI50 [54]: > 100 µM
TGI [54]: > 100 µM
GI50 [55]: > 100 µM
TGI [55]: > 100 µM
GI50 [56]: > 100 µM
TGI [56]: > 100 µM
GI50 [57]: 0.0656 µM
TGI [57]: 0.216 µM

CN(c1ccc(NC(=O)Nc2ccc(OC(F)(F)F)cc2)cc1)c1ccnc(Nc2cccc(S(N)(=O)=O)c2)n1
GI50 [1]: 5.25 µM
TGI [1]: 12 µM
GI50 [2]: 1.15 µM
TGI [2]: 3.37 µM
GI50 [3]: 2.68 µM
TGI [3]: 9.83 µM
GI50 [4]: 5.42 µM
TGI [4]: 15.5 µM
GI50 [5]: 4.31 µM
TGI [5]: 8.3 µM
GI50 [6]: 6.45 µM
TGI [6]: 20.8 µM
GI50 [7]: 0.412 µM
TGI [7]: 25 µM
GI50 [8]: 0.317 µM
TGI [8]: 3.5 µM
GI50 [9]: 3.26 µM
TGI [9]: 6.46 µM
GI50 [10]: 5.33 µM
TGI [10]: 12.4 µM
GI50 [11]: 5.11 µM
TGI [11]: 9.27 µM
GI50 [12]: 1.73 µM
TGI [12]: 5.7 µM
GI50 [13]: 5.34 µM
TGI [13]: 15.3 µM
GI50 [14]: 2.7 µM
TGI [14]: 6.36 µM
GI50 [15]: 3.71 µM
TGI [15]: 8.1 µM
GI50 [16]: 2.36 µM
TGI [16]: 6.95 µM
GI50 [17]: 4.14 µM
TGI [17]: 17 µM
GI50 [18]: 1.35 µM
TGI [18]: 5.95 µM
GI50 [19]: 1.73 µM
TGI [19]: 7.45 µM
GI50 [20]: 0.0874 µM
TGI [20]: 4.31 µM
GI50 [21]: 0.0157 µM
TGI [21]: 3.99 µM
GI50 [22]: 0.725 µM
TGI [22]: 3.97 µM
GI50 [23]: 3.39 µM
TGI [23]: 8.03 µM
GI50 [24]: 3.84 µM
TGI [24]: 8.34 µM
GI50 [25]: 1.06 µM
TGI [25]: 5.56 µM
GI50 [26]: 4.92 µM
TGI [26]: 15.1 µM
GI50 [27]: 3.15 µM
TGI [27]: 6.68 µM
GI50 [28]: 1.11 µM
TGI [28]: 4.16 µM
GI50 [29]: 3.28 µM
TGI [29]: 9.51 µM
GI50 [30]: 2.15 µM
TGI [30]: 6.25 µM
GI50 [31]: 0.428 µM
TGI [31]: 4.51 µM
GI50 [32]: 3.41 µM
TGI [32]: 7.36 µM
GI50 [33]: 12.6 µM
TGI [33]: 25 µM
GI50 [34]: 3.05 µM
TGI [34]: 6.69 µM
GI50 [35]: 3.06 µM
TGI [35]: 8.03 µM
GI50 [36]: 5.47 µM
TGI [36]: 13.7 µM
GI50 [37]: 3.07 µM
TGI [37]: 7.17 µM
GI50 [38]: 1.45 µM
TGI [38]: 5.72 µM
GI50 [39]: 2.7 µM
TGI [39]: 10.1 µM
GI50 [40]: 2.13 µM
TGI [40]: 6.04 µM
GI50 [41]: 2.34 µM
TGI [41]: 6.74 µM
GI50 [42]: 0.861 µM
TGI [42]: 6.48 µM
GI50 [43]: 0.591 µM
TGI [43]: 5.47 µM
GI50 [44]: 4.57 µM
TGI [44]: 9.7 µM
GI50 [45]: 3.42 µM
TGI [45]: 7 µM
GI50 [46]: 3.96 µM
TGI [46]: 7.56 µM
GI50 [47]: 4.65 µM
TGI [47]: 8.96 µM
GI50 [48]: 2.27 µM
TGI [48]: 11.5 µM
GI50 [49]: 5.49 µM
TGI [49]: 14.3 µM
GI50 [50]: 2.38 µM
TGI [50]: 6.61 µM
GI50 [51]: 2.93 µM
TGI [51]: 6.62 µM
GI50 [52]: 3.51 µM
TGI [52]: 9.35 µM
GI50 [53]: 6.21 µM
TGI [53]: 13 µM
GI50 [54]: 3.07 µM
TGI [54]: 6.64 µM
GI50 [55]: 3.77 µM
TGI [55]: 9.14 µM
GI50 [56]: 3.02 µM
TGI [56]: 7.13 µM
GI50 [57]: 4.63 µM
TGI [57]: 11.9 µM
